{
  "source": "ChEMBL document CHEMBL1221210",
  "about": "“A Cdc7 kinase inhibitor restricts initiation of DNA replication and has antitumor activity” (Nat Chem Biol, 2008)",
  "key": {"HeLa [1]": {"test_system": "HeLa", "experiment": "Inhibition of DNA replication in human HeLa cells assessed as interorigin distance between homogenous DNA fibers at 2 uM after 2 hrs by immunofluorescence assay", "format": "functional"}, "HeLa [2]": {"test_system": "HeLa", "experiment": "Inhibition of DNA replication in human HeLa cells assessed as interorigin distance between homogenous DNA fibers at 5 uM after 4 hrs by immunofluorescence assay", "format": "functional"}, "HeLa [3]": {"test_system": "HeLa", "experiment": "Inhibition of DNA replication in human HeLa cells assessed as interorigin distance between homogenous DNA fibers at 5 uM after 6 hrs by immunofluorescence assay", "format": "functional"}, "HeLa [4]": {"test_system": "HeLa", "experiment": "Inhibition of DNA replication in human HeLa cells assessed as interorigin distance between homogenous DNA fibers at 20 uM after 2 hrs by immunofluorescence assay", "format": "functional"}, "HeLa [5]": {"test_system": "HeLa", "experiment": "Inhibition of DNA replication in human HeLa cells assessed as increase in replication fork speed per min at 20 uM after 2 hrs by immunofluorescence assay", "format": "functional"}, "HeLa [6]": {"test_system": "HeLa", "experiment": "Inhibition of DNA replication in human HeLa cells assessed as increase in replication fork speed per min at 20 uM after 4 hrs by immunofluorescence assay", "format": "functional"}, "HeLa [7]": {"test_system": "HeLa", "experiment": "Inhibition of DNA replication in human HeLa cells assessed as increase in replication fork speed per min at 20 uM after 6 hrs by immunofluorescence assay", "format": "functional"}, "NHDF [8]": {"test_system": "NHDF", "experiment": "Induction of cell cycle arrest in NHDF expressing p53 gene assessed as accumulation at subG1 phase at 0.1 uM after 24hrs by FACS analysis", "format": "cell-based", "conditions": "human; call rule not given here"}, "HeLa [9]": {"test_system": "HeLa", "experiment": "Inhibition of DNA synthesis in human HeLa cells assessed as Brd-U uptake at 5 uM after 6 hrs by FACS analysis", "format": "functional", "design": "scale not given: the % may be the effect or the level left"}, "HeLa [10]": {"test_system": "HeLa", "experiment": "Inhibition of DNA synthesis in human HeLa cells assessed as Brd-U uptake at 5 uM after 9 hrs by FACS analysis", "format": "functional", "design": "scale not given: the % may be the effect or the level left"}, "NHDF [11]": {"test_system": "NHDF", "experiment": "Induction of cell cycle arrest in thymidine deficient NHDF assessed as DNA synthesis in S-phase at 5 uM after 16hrs FACS analysis in presence of serum", "format": "cell-based", "conditions": "human"}, "Mus musculus": {"test_system": "Mus musculus", "experiment": "AUC in SCID mouse carrying human HL60 cells at 30 mg/kg, iv after 10 hrs", "format": "ADME, organism-based, HL-60", "design": "time < 10 hr, dose 30 mg/kg, route intravenous", "conditions": "in vivo"}, "[12]": {"biological_target": "Mitogen-activated protein kinase 11 (Homo sapiens, UniProt Q15759)", "sequence (Q15759 whole entry)": "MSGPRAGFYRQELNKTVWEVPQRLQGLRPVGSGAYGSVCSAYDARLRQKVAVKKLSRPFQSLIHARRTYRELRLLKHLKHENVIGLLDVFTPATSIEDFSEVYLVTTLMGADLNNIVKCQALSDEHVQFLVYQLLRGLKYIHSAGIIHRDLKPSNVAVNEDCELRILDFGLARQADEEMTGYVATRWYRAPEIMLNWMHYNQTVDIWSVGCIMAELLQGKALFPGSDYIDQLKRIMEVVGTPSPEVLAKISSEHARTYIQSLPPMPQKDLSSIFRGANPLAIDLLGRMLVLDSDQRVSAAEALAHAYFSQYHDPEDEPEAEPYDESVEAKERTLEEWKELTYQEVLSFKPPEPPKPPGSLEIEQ", "experiment": "Inhibition of P38beta"}, "[13]": {"experiment": "Antiproliferative activity against human NCI60 cells"}, "[14]": {"experiment": "Antiproliferative activity against p53 deficient human HCT116/E6 cells after 72 hrs by proliferative assay", "format": "functional, cell-based", "conditions": "HCT116-E6, 72 h"}, "SF-539 [15]": {"test_system": "SF-539", "experiment": "Antiproliferative activity against human SF539 cells expressing p53 gene after 72 hrs by proliferative assay", "format": "functional, cell-based", "conditions": "SF-539, 72 h"}, "U2OS [16]": {"test_system": "U2OS", "experiment": "Antiproliferative activity against human U2OS cells expressing p53 gene after 72 hrs by proliferative assay", "format": "functional, cell-based"}, "SF-268 [17]": {"test_system": "SF-268", "experiment": "Induction of cell cycle arrest in p53 deficient human SF268 cells assessed as accumulation at subG1 phase at 5 uM after 24 hrs FACS analysis", "format": "functional"}, "HeLa [18]": {"test_system": "HeLa", "experiment": "Induction of cell cycle arrest in p53 deficient human HeLa cells assessed as assessed as accumulation at subG1 phase at 5 uM after 24hrs by FACS analysis", "format": "functional"}, "COLO 205": {"test_system": "COLO 205", "experiment": "Induction of cell cycle arrest in p53 deficient human COLO205 cells assessed as accumulation at subG1 phase at 5 uM after 24hrs by FACS analysis", "format": "functional"}, "Jurkat": {"test_system": "Jurkat", "experiment": "Induction of cell cycle arrest in p53 deficient human Jurkat cells assessed as accumulation at subG1 phase at 5 uM after 24hrs by FACS analysis", "format": "functional"}, "[19]": {"experiment": "Induction of cell cycle arrest in p53 deficient human A2780/E6 cells as accumulation at subG1 phase at 5 uM after 24hrs by FACS analysis", "format": "functional"}, "SF-539 [20]": {"test_system": "SF-539", "experiment": "Induction of cell cycle arrest in human SF539 cells expressing p53 gene assessed as accumulation at subG1 phase at 5 uM after 24hrs by FACS analysis", "format": "functional"}, "U2OS [21]": {"test_system": "U2OS", "experiment": "Induction of cell cycle arrest in human U2OS cells expressing p53 gene assessed as accumulation at subG1 phase at 5 uM after 24hrs by FACS analysis", "format": "functional"}, "HeLa [22]": {"test_system": "HeLa", "experiment": "Induction of cell cycle arrest in p53 deficient human HeLa cells assessed as accumulation at subG1 phase at 10 uM after 24hrs by FACS analysis", "format": "functional"}, "SW480 [23]": {"test_system": "SW480", "experiment": "Induction of cell cycle arrest in p53 deficient human SW480 cells assessed as accumulation at subG1 phase at 10 uM after 24hrs by FACS analysis", "format": "functional"}, "[24]": {"experiment": "Induction of cell cycle arrest in p53 deficient human A2780/E6 cells assessed as accumulation at subG1 phase at 10 uM after 24hrs by FACS analysis", "format": "functional"}, "MCF7 [25]": {"test_system": "MCF7", "experiment": "Induction of cell cycle arrest in human MCF7 cells expressing p53 gene assessed as accumulation at subG1 phase at 10 uM after 24hrs by FACS analysis", "format": "functional"}, "SF-268 [26]": {"test_system": "SF-268", "experiment": "Induction of cell cycle arrest in p53 deficient human SF268 cells assessed as residual DNA synthesis at 5 uM after 24 hrs FACS analysis", "format": "functional"}, "K562 [27]": {"test_system": "K562", "experiment": "Induction of cell cycle arrest in p53 deficient human K562 cells assessed as residual DNA synthesis at 5 uM after 24hrs by FACS analysis", "format": "functional"}, "HeLa [28]": {"test_system": "HeLa", "experiment": "Induction of cell cycle arrest in p53 deficient human HeLa cells assessed as residual DNA synthesis at 5 uM after 24hrs by FACS analysis", "format": "functional"}, "SW480 [29]": {"test_system": "SW480", "experiment": "Induction of cell cycle arrest in p53 deficient human SW480 cells assessed as residual DNA synthesis at 5 uM after 24 hrs by FACS analysis", "format": "functional"}, "[30]": {"experiment": "Induction of cell cycle arrest in p53 deficient human HCT116-E6 cells assessed as residual DNA synthesis at 5 uM after 24 hrs by FACS analysis", "format": "functional"}, "MCF7 [31]": {"test_system": "MCF7", "experiment": "Induction of cell cycle arrest in human MCF7 cells expressing p53 gene assessed as residual DNA synthesis at 5 uM after 24 hrs by FACS analysis", "format": "functional"}, "HCT-116": {"test_system": "HCT-116", "experiment": "Induction of cell cycle arrest in human HCT116 cells expressing p53 gene assessed as residual DNA synthesis at 5 uM after 24 hrs by FACS analysis", "format": "functional"}, "HCT-15": {"test_system": "HCT-15", "experiment": "Induction of cell cycle arrest in human HCT15 cells expressing p53 gene assessed as residual DNA synthesis at 5 uM after 24 hrs by FACS analysis", "format": "functional"}, "K562 [32]": {"test_system": "K562", "experiment": "Induction of cell cycle arrest in p53 deficient human K562 cells assessed as residual DNA synthesis at 10 uM after 24 hrs by FACS analysis", "format": "functional"}, "[33]": {"experiment": "Induction of cell cycle arrest in p53 deficient human HCT116-E6 cells assessed as residual DNA synthesis at 10 uM after 24 hrs by FACS analysis", "format": "functional"}, "[34]": {"experiment": "Induction of cell cycle arrest in p53 deficient human A2780/E6 cells assessed as residual DNA synthesis at 10 uM after 24 hrs by FACS analysis", "format": "functional"}, "MCF7 [35]": {"test_system": "MCF7", "experiment": "Induction of cell cycle arrest in human MCF7 cells expressing p53 gene assessed as residual DNA synthesis at 10 uM after 24 hrs by FACS analysis", "format": "functional"}, "A2780": {"test_system": "A2780", "experiment": "Induction of cell cycle arrest in human A2780 cells expressing p53 gene assessed as residual DNA synthesis at 10 uM after 24 hrs by FACS analysis", "format": "functional"}},
  "data": [
    {"smiles": "O=C1NCCc2[nH]c(-c3ccncc3)cc21", "values": [
      {"measurement": "Activity", "setting": "HeLa [1]", "result": 225, "unit": "kilobase"},
      {"measurement": "Activity", "setting": "HeLa [2]", "result": 288, "unit": "kilobase"},
      {"measurement": "Activity", "setting": "HeLa [3]", "result": 293, "unit": "kilobase"},
      {"measurement": "Activity", "setting": "HeLa [4]", "result": 226, "unit": "kilobase"},
      {"measurement": "Activity", "setting": "HeLa [5]", "result": 1.92, "unit": "kilobase"},
      {"measurement": "Activity", "setting": "HeLa [6]", "result": 2.32, "unit": "kilobase"},
      {"measurement": "Activity", "setting": "HeLa [7]", "result": 2.28, "unit": "kilobase"},
      {"measurement": "Activity", "setting": "NHDF [8]", "result": "Active"},
      {"measurement": "Activity", "setting": "HeLa [9]", "result": 26, "unit": "%"},
      {"measurement": "Activity", "setting": "HeLa [10]", "result": 9, "unit": "%"},
      {"measurement": "Activity", "setting": "NHDF [11]", "result": "Active"},
      {"measurement": "AUC", "setting": "Mus musculus", "result": 71, "unit": "µM·h"},
      {"measurement": "IC50", "setting": "[12]", "result": "> 10000", "unit": "nM"},
      {"measurement": "IC50", "setting": "[13]", "result": 3100, "unit": "nM"},
      {"measurement": "IC50", "setting": "[14]", "result": 1480, "unit": "nM"},
      {"measurement": "IC50", "setting": "SF-539 [15]", "result": 2340, "unit": "nM"},
      {"measurement": "IC50", "setting": "U2OS [16]", "result": 1490, "unit": "nM"},
      {"measurement": "Activity", "setting": "SF-268 [17]", "result": 3, "unit": "%"},
      {"measurement": "Activity", "setting": "HeLa [18]", "result": 10, "unit": "%"},
      {"measurement": "Activity", "setting": "COLO 205", "result": 10, "unit": "%"},
      {"measurement": "Activity", "setting": "Jurkat", "result": ">20", "unit": "%"},
      {"measurement": "Activity", "setting": "[19]", "result": ">20", "unit": "%"},
      {"measurement": "Activity", "setting": "SF-539 [20]", "result": 3, "unit": "%"},
      {"measurement": "Activity", "setting": "U2OS [21]", "result": 3, "unit": "%"},
      {"measurement": "Activity", "setting": "HeLa [22]", "result": 10, "unit": "%"},
      {"measurement": "Activity", "setting": "SW480 [23]", "result": ">20", "unit": "%"},
      {"measurement": "Activity", "setting": "[24]", "result": ">20", "unit": "%"},
      {"measurement": "Activity", "setting": "MCF7 [25]", "result": "<3", "unit": "%"},
      {"measurement": "Activity", "setting": "SF-268 [26]", "result": "<3", "unit": "%"},
      {"measurement": "Activity", "setting": "K562 [27]", "result": 10, "unit": "%"},
      {"measurement": "Activity", "setting": "HeLa [28]", "result": "<3", "unit": "%"},
      {"measurement": "Activity", "setting": "SW480 [29]", "result": "<3", "unit": "%"},
      {"measurement": "Activity", "setting": "[30]", "result": 3, "unit": "%"},
      {"measurement": "Activity", "setting": "MCF7 [31]", "result": "<3", "unit": "%"},
      {"measurement": "Activity", "setting": "HCT-116", "result": 3, "unit": "%"},
      {"measurement": "Activity", "setting": "HCT-15", "result": "<3", "unit": "%"},
      {"measurement": "Activity", "setting": "K562 [32]", "result": 10, "unit": "%"},
      {"measurement": "Activity", "setting": "[33]", "result": "<3", "unit": "%"},
      {"measurement": "Activity", "setting": "[34]", "result": "<3", "unit": "%"},
      {"measurement": "Activity", "setting": "MCF7 [35]", "result": "<3", "unit": "%"},
      {"measurement": "Activity", "setting": "A2780", "result": "<3", "unit": "%"}
    ]}
  ]
}
